In patent US8399466B2, “Composition for regenerative treatment of cartilage disease” (Mitsubishi Tanabe Pharma Corporation, priority 2001, dated 2013):

Tests used:
[1] = tested on: human articular chondrocytes; assay: Increase of intracellular cAMP in human articular chondrocytes (cAMP EIA); type: cell-based; details: PGE2 1 μM, 30 minutes, vehicle 0.4
Experimental: Human articular cartilage (articular cartilage of degenerative malum coxae patient) was soaked in phosphate buffer (pH 7.2) and only the cortical layer of the joint portion was scrapped with, a knife into a 50 ml tube containing same buffer. The collected knee joint cortical layer was cut into as small sections as possible on a dish with a razor and transferred to a centrifuge tube.
To the centrifuge tube, phosphate buffer (pH 7.2) containing 1 mg/ml of hyaluronidase (SIGMA: Cat. No. H-3506) was added and shaken at 37° C. for 15 minutes. The precipitates were separated by centrifugation (2,000 rpm, 5 minutes) and added to Hank's balanced salt solution (GIBCO; Cat. No. 15050-065) containing 0.25% trypsin and shaken at 37° C. for 30 minutes.
After separation of precipitates by centrifugation (2,000 rpm, 5 minutes), α-minimum essential medium (GIBCO; Cat. No. 12571-063) containing 0.25% collagenase for cell diffusion (Wako Pure Chemical Industries, Ltd., 034-10533) and 10% fetal calf serum (GIBCO; Cat. No. 10099-141) were added to the precipitates and shaken at 37° C. overnight.
Cartilage fragments were removed using a 40 μm Cell Strainer (FALCON; Cat. No. 2340), and α-minimum essential medium containing 10% fetal calf serum was added to the collagenase-treated cells and centrifuged (1,400 rpm, 10 minutes).
The precipitates were washed three times with α-minimum essential medium containing 10% fetal calf serum and suspended in the same medium to an appropriate volume and seeded into 48-well plates (50,000 cells/well). On the next day, the medium was replaced with α-minimum essential medium containing 10% fetal calf serum. The α-minimum essential medium used contained antibiotics (100 U/ml penicillin G and 100 μg/ml streptomycin sulfate) and an antifungal (0.25 μg/ml amphotericin B) (GIBCO; Cat. No. 15240-062). […]
After 30 minutes cultivation, medium was discarded. […] The residue was dissolved in an assay buffer attached with cAMP EIA system (Amersham Pharmacia Biotech; Cat. No. RPN225) and cAMP concentration was measured with said system.

articular chondrocytes = assay: Increase of matrix production of articular chondrocytes (Alcian blue staining of proteoglycan); type: cell-based, rabbit; details: for Proteoglycan Production (%): cultivation until day 5, vehicle = 100; for matrix production promoting activity: summary of Table 1
Experimental: Four NZW line rabbits (Kitayama Labes., Co Ltd.; male; 4-week-old) were sacrificed with bleeding under ether anesthesia and femur knee joints were collected aseptically. The collected knee joints were stored in phosphate buffer (pH 7.2) containing 0.2% glucose and only the cortical layer of knee joint was scrapped with a surgical knife into a 50 ml tube containing phosphate buffer (pH 7.2) containing 0.2% glucose. The collected knee joint cortical layer was cut into as small sections as possible on a dish with a razor and shaken at 37° C. for 15 minutes in phosphate buffer containing 0.2% glucose, supplied with 10× trypsin-ethylenediamine tetraacetic acid (EDTA)·4 Na salt (GIBCO; Cat. No. 15400-054) (50 ml, with 100 mg of trypsin and 40 mg of EDTA·4Na; pH 7.2). After shaking, the sample was centrifuged (1,400 rpm) to collect precipitates, and the precipitates were washed twice with 40 ml of phosphate buffer containing 0.2% glucose. The washed precipitates were combined with 40 ml of serum-free α-minimum essential medium (MEM: GIBCO; Cat: No. 12571-063) containing 60 mg of collagenase for cell diffusion (Wako Pure Chemical Industries, Ltd., 034-10533) and transferred to a 100 ml beaker containing a sterilized stirrer bar. Under stirring with the stirrer bar, the collagenase digestion was carried on for about 1 hour in a CO2 incubator at 37° C. Cartilage fragments were removed from the collagenase-treated cells using a […] Cell Strainer ([FALCON; Cat. No. 2340]). To the residual treated cells was added 10 ml of α-MEM medium containing 10% fetal calf serum (FCS), and centrifuged (1,400 rpm). The precipitates were washed with 10% FCS-αMEM medium twice, suspended in appropriate volume of the same medium and the resultant suspension was seeded into collagen type II (Wako Pure Chemical Industries, Ltd., 033-13901)-coated plates (48 well) at 20,000 cells/well. On the next day, the medium was replaced with 10% FCS-αMEM medium.
When cells reached to confluent after the medium exchange procedure above, the medium for test group was replaced with test compound-containing medium (including 0.1% dimethylsulfoxide as a vehicle). As a medium to which a test compound is added, 10% FCS-αMEM medium containing 0.2 mM ascorbic acid was used. The day on which test compound-containing medium was added for the first time was defined as “day 1”. The medium exchange with the same medium was again conducted at day 3 and the cultivation continued until day 5. As to the control group, the medium was exchanged at the same time using the same medium as the test group except that it is free of test compound (containing vehicle only), and the cultivation was carried out in the same manner. After completion of cultivation, the supernatant was removed from the culture medium. Cells were fixed by addition of 0.25 ml of neutral buffer containing 4% paraformaldehyde and incubation for 2 hours. Cells were washed three times with 1 ml of phosphate buffer (pH 7.2) and then stained for 4 hours with 0.1% Alcian blue 8GX (Sigma; A3157) dissolved in 0.1 M hydrochloric acid, which Alcian blue selectively stains cartilage matrix proteoglycan. After staining, the cells were washed 3 times with 1 ml of phosphate buffer (pH 7.2). Alcian blue which had stained cartilage matrix was dissolved with 0.25 ml of aqueous 6 M guanidine hydrochloride solution and a portion of the solution was used to determine the absorbance at 620 nm. The amounts of Alcian blue used for staining was calculated from the absorbance, which in turn was used for the estimation of the amount of matrix (proteoglycan).

Compound | cAMP Production (picomol/well) ([1]; 1 × 10^−5) | Proteoglycan Production (%) (articular chondrocytes; 1 × 10^−6 M) | matrix production promoting activity (articular chondrocytes) | cAMP Production (picomol/well) ([1]; 1 × 10^−6) | Proteoglycan Production (%) (articular chondrocytes; 1 × 10^−5 M)
COc1ccc(C(=O)Nc2c(Cl)cncc2Cl)cc1OC1CCCC1 [Compound (11)] | 10.6 | 112 | exert matrix production promoting activity |  | 
CCOc1cc2cc(CO)c(CO)c(-c3ccnc(-n4nc(-c5cccnc5)c5ccccc5c4=O)c3)c2cc1OCC [Compound (2)] | 23.2 | 125 | exert matrix production promoting activity | 13.8 | 128
